US20260199500A1, “Camptothecin Derivative, Conjugate Thereof, Preparation Method Therefor and Medical Use Thereof” (priority 2023, published 2026)
Where two headings read alike, the source gives them in different places.

Experiments:
[1] = US 20210169852 A; cited from earlier work
N87 gastric cancer cells = assay: Inhibitory activity of compounds on N87 gastric cancer cells (CellTiter-Glo, 144 h); assay type: cell-based; conditions: samples retested together; ratio of measured IC50 to DXD
Procedure: (§1) On the day of the experiment, the cells were digested with 0.25% trypsin (Gibco, 25200-072), filtered through a 40 μm sieve, diluted with the corresponding medium to a cell density of 1×10^4 cells/mL, and inoculated into a 96-well white cell culture plate (Beyotime, FCP968), with 100 μL of cells added per well. The culture plate was placed in a 37° C. incubator (Thermo 311) containing 5% C02 and incubated for 24 hours. On the second day, the samples to be tested were prepared as a stock solution at a final concentration of 1M in DMSO (Sigma, D1650), then diluted with the corresponding medium to a final concentration of 200 nM, and subjected to four-fold serial dilutions, resulting in a total of 9 concentrations. 100 μL of the diluted sample was added to each well of the 96-well plate. The plate was placed in a 37° C. incubator containing 5% CO2 and incubated for 144 hours. The cell culture plate was then removed, and 100 μL of the cell viability assay reagent (CellTiter-Glo® Luminescent Cell Viability Assay, Promega, G7571) was added to each well. The reaction was carried out in the dark at room temperature for 5 minutes. Luminescence values were read using a microplate reader (TECAN SPARK), and data were processed using Graphpad Prism 7 software.
(§2) PY—Y is referenced in the document (WO2022170971A1); and PY-A is referenced in the document (WO2021148501A1).

[2] = test system: MDA-MB-468 breast cancer cells; assay: Inhibitory activity of compounds on MDA-MB-468 breast cancer cells (CellTiter-Glo); assay type: cell-based; conditions: samples retested together; ratio of measured IC50 to DXD
Procedure: as §1, §2

H82 (SCLC) cells = assay: Inhibition of H82 cells by compounds; assay type: cell-based; conditions: PY-X (DXD) set to 1
Procedure: as §1

H1650 (NSCLC) cells = assay: Inhibition of H1650 cells by compounds; assay type: cell-based; conditions: PY-X (DXD) set to 1
Procedure: as §1

H1437 (NSCLC) cells = assay: Inhibition of H1437 cells by compounds; assay type: cell-based; conditions: PY-X (DXD) set to 1
Procedure: as §1

SW1573 (NSCLC) cells = assay: Inhibition of SW1573 cells by compounds; assay type: cell-based; conditions: PY-X (DXD) set to 1
Procedure: as §1

[3] = test system: PANC-1 (Pancreatic) cells; assay: Inhibition of PANC-1 cells by compounds; assay type: cell-based; conditions: PY-X (DXD) set to 1
Procedure: as §1

Colo-205 (Colon) cells = assay: Inhibition of Colo-205 cells by compounds; assay type: cell-based; conditions: PY-X (DXD) set to 1
Procedure: as §1

HT-29 (Colon) cells = assay: Inhibition of HT-29 cells by compounds; assay type: cell-based; conditions: PY-X (DXD) set to 1
Procedure: as §1

A549 (NSCLC) cells = assay: Inhibition of A549 cells by compounds; assay type: cell-based; conditions: PY-X (DXD) set to 1
Procedure: as §1

[4] = test system: SW1990 (Pancreatic) cells; assay: Inhibition of SW1990 cells by compounds; assay type: cell-based; conditions: PY-X (DXD) set to 1
Procedure: as §1

[5] = Log D of small molecules (1-octanol / phosphate buffer pH 2.5 and pH 7.4, LC-MS/MS); assay type: physicochemical
Procedure: (1) Preparation of 100 mM phosphate buffer (PB) solution at pH 2.5 and pH 7.4 respectively: • a. Preparation of a solution of 100 mM H3PO4 in water: 14.7 M H3PO4 was diluted with water to a concentration of 100 mM H3PO4, and the pH was measured to be approximately 1.8. • b. Preparation of 100 mM NaH2PO4: 5.999 g of NaH2PO4 was dissolved in 500 mL of water and the pH was measured to be approximately 4.5. • c. Preparation of 100 mM Na2HPO4: 7.098 g of Na2HPO4 was dissolved in water to a volume of 500 mL and the pH was measured to be approximately 9.4. • d. Preparation of 100 mM PB (pH 2.5): 15 mL of 100 mM H3PO4 was added to a 50 mL tube, and then pH was adjusted to 2.5±0.05 with 100 mM NaH2PO4. • d. Preparation of 100 mM PB (pH 7.4): 15 mL of 100 mM Na2HPO4 was added to a 50 mL tube, and then pH was adjusted to 7.4±0.05 with 100 mM NaH2PO4.
(2) Saturation of PBs (pH 2.5 and pH 7.4) with 1-octanol: 10 mL of 1-octanol was added to 100 mL of 100 mM PBs (pH 2.5 and pH 7.4), and the mixture was shaken vigorously, and then allowed to stand overnight at room temperature for later use.
(3) Saturation of 1-octanol with PBs (pH 2.5 and pH 7.4): 10 mL of 100 mM PBs (pH 2.5 and pH 7.4) was added to 100 mL of 1-octanol, and the mixture was shaken vigorously, and then allowed to stand overnight at room temperature for later use.
2.1) 2 μL of 10 mM DMSO stock solution of the test compound were dispensed into test tubes, in duplicate.
2.2) 149 μL of PB saturated with 1-octanol (pH 2.5 and 7.4) were added to the tubes.
2.3) 149 μL of PB (pH 2.5 and 7.4) saturated with 1-octanol were added to the corresponding tubes.
2.4) Each tube was vigorously mixed for 2 minutes, then shaken at 800 rpm for 1 hour at room temperature.
2.5) The tubes were centrifuged at 4000 rpm for 5 minutes at room temperature.
2.6) Appropriate volumes of the buffer phase and 1-octanol phase samples were aliquoted.
2.7) These samples were diluted and analyzed using LC-MS/MS without running a calibration curve.
2.8) Data analysis: The log D value of each compound was calculated using the following formula: f

DMS53 (SCLC) cells = assay: Inhibition of DMS53 cells by compounds; assay type: cell-based; conditions: PY-X (DXD) set to 1
Procedure: as §1

| SMILES | times less active than exatecan [1] | IC50 on N87 cells, ratio to DXD (retest) (N87 gastric cancer cells) | IC50 on 468 cells, ratio to DXD (retest) [2] | IC50 in H82 cells, ratio to DXD (H82 (SCLC) cells) | IC50 in H1650 cells, ratio to DXD (H1650 (NSCLC) cells) | IC50 in H1437 cells, ratio to DXD (H1437 (NSCLC) cells) | IC50 in SW1573 cells, ratio to DXD (SW1573 (NSCLC) cells) | IC50 in PANC-1 cells, ratio to DXD [3] | IC50 in Colo-205 cells, ratio to DXD (Colo-205 (Colon) cells) | IC50 in HT-29 cells, ratio to DXD (HT-29 (Colon) cells) | IC50 in A549 cells, ratio to DXD (A549 (NSCLC) cells) | IC50 in SW1990 cells, ratio to DXD [4] | logD ([5]; 1-octanol / phosphate buffer pH 2.5, read-out: Log D2.5 (Oct/buff) Result) | logD ([5]; 1-octanol / phosphate buffer pH 7.4, read-out: Log D7.4 (Oct/buff) Result) | solubility in n-octanol compared with PY-4Car, PY-4Car3C and DXD ([5]; different pH values (2.5 and 7.4)) | IC50 in DMS53 cells, ratio to DXD (DMS53 (SCLC) cells) | logD ([5]; pH 2.5) | logD ([5]; pH 7.4) |
| --- | --- | --- | --- | --- | --- | --- | --- | --- | --- | --- | --- | --- | --- | --- | --- | --- | --- | --- |
| CC[C@@]1(O)C(=O)OCc2c1cc1n(c2=O)Cc2c-1nc1cc(F)c(C)c3c1c2[C@@H](NC(=O)CO)CC3 [DXd] | 2-4 | – | – | – | – | – | – | – | – | – | – | – | – | – | – | – | – | – |
| CC[C@@]1(O)C(=O)OCc2c1cc1n(c2=O)Cc2c-1nc1cc(F)c(C)c3c1c2[C@@H](NC(=O)OCCCCO)CC3 [PY-4Car2, 4-hydroxybutyl((1S,9S)-9-ethyl-5-fluoro-9-hydroxy-4-methyl-10,13-dioxo-2,3,9,10,13,15-hexahydro-1H,12H-benzo[de]pyrano[3′,4′:6,7]indolizino[1,2-b]quinolin-1-yl)carbamate] | – | 0.5046 | 0.8170 | 0.5803 | 0.7384 | 0.9590 | 0.4766 | 0.4865 | 0.4478 | 0.4854 | 0.5433 | 0.3573 | 2.44 | 2.43 | belier solubility in n-octanol | – | – | – |
| CC[C@@]1(O)C(=O)OCc2c1cc1n(c2=O)Cc2c-1nc1cc(F)c(C)c3c1c2[C@@H](NC(=O)OCCO)CC3 [PY-4Car, 2-hydroxyethyl((1S,9S)-9-ethyl-5-fluoro-9-hydroxy-4-methyl-10,13-dioxy-2,3,9,10,13,15-hexahydro-1H,12H-benzo[de]pyran[3′,4:6,7]indolizino[1,2-b]quinolin-1-yl)carbamate] | – | 0.3112 | 0.5193 | 0.4523 | 0.4491 | 0.6526 | 0.3187 | 0.4763 | 0.2923 | 0.3312 | 0.4832 | 0.4822 | – | – | – | 0.5151 | 2.1 | 2.09 |
